Test: refractive index (Na D-line) (dimensionless); xn = mol fraction of the nth substance listed
Conditions: 100 kPa, Liquid, Standard Abbe refractometry

CCOC(=O)CCC(=O)OCC [diethyl butanedioate] + CC(C)CCO
refractive index
Conditions	x1 = 0.1	x1 = 0.2	x1 = 0.3	x1 = 0.3999	x1 = 0.5	x1 = 0.5999	x1 = 0.7	x1 = 0.7999	x1 = 0.9002	x1 = 1
288.15 K	1.41	1.4114	1.4129	1.4144	1.4158	1.4172	1.4184	1.4197	1.4208	1.4217
293.15 K	1.4079	1.4093	1.4108	1.4123	1.4136	1.415	1.4163	1.4175	1.4186	1.4195
298.15 K	1.4058	1.4072	1.4087	1.4101	1.4115	1.4128	1.414	1.4153	1.4164	1.4173
303.15 K	1.4037	1.4051	1.4065	1.4079	1.4093	1.4106	1.4119	1.4131	1.4142	1.4151
308.15 K	1.4016	1.4029	1.4043	1.4057	1.4071	1.4084	1.4096	1.4108	1.412	1.4129
313.15 K	1.3996	1.4008	1.4022	1.4036	1.4049	1.4062	1.4075	1.4087	1.4098	1.4108
318.15 K	1.3975	1.3988	1.4001	1.4014	1.4028	1.4041	1.4054	1.4066	1.4077	1.4088
323.15 K	1.3954	1.3966	1.398	1.3993	1.4006	1.4019	1.4032	1.4045	1.4056	1.4067

CCOC(=O)CCC(=O)OCC [diethyl butanedioate] + CC(C)CO
refractive index
Conditions	x1 = 0.0999	x1 = 0.2	x1 = 0.3001	x1 = 0.4	x1 = 0.4999	x1 = 0.5999	x1 = 0.6999	x1 = 0.8	x1 = 0.9	x1 = 1
288.15 K	1.4016	1.4047	1.4076	1.4103	1.4127	1.4148	1.4168	1.4186	1.4203	1.4217
293.15 K	1.3995	1.4025	1.4055	1.4081	1.4105	1.4127	1.4146	1.4164	1.4181	1.4195
298.15 K	1.3974	1.4004	1.4033	1.4059	1.4083	1.4104	1.4124	1.4142	1.4159	1.4173
303.15 K	1.3952	1.3982	1.4011	1.4037	1.4061	1.4082	1.4102	1.412	1.4137	1.4151
308.15 K	1.3929	1.396	1.3989	1.4015	1.4038	1.406	1.408	1.4098	1.4115	1.4129
313.15 K	1.3908	1.3938	1.3966	1.3992	1.4016	1.4037	1.4058	1.4076	1.4093	1.4108
318.15 K	1.3886	1.3916	1.3943	1.397	1.3993	1.4015	1.4036	1.4054	1.4071	1.4088
323.15 K	1.3863	1.3894	1.3921	1.3947	1.3971	1.3993	1.4013	1.4032	1.405	1.4067

CCCCCCCC(=O)OCC [ethyl octanoate] + CC(C)CCO
refractive index
Conditions	x1 = 0.1	x1 = 0.2001	x1 = 0.3	x1 = 0.4	x1 = 0.5001	x1 = 0.5999	x1 = 0.7003	x1 = 0.7998	x1 = 0.9001	x1 = 1
288.15 K	1.4104	1.412	1.4134	1.4146	1.4156	1.4166	1.4175	1.4183	1.4191	1.4199
293.15 K	1.4083	1.4099	1.4112	1.4124	1.4135	1.4144	1.4153	1.4161	1.4169	1.4177
298.15 K	1.4063	1.4078	1.4091	1.4102	1.4113	1.4122	1.4131	1.4139	1.4147	1.4155
303.15 K	1.4042	1.4056	1.4069	1.4081	1.4091	1.41	1.4109	1.4116	1.4125	1.4132
308.15 K	1.4021	1.4035	1.4047	1.4059	1.4069	1.4078	1.4087	1.4094	1.4102	1.411
313.15 K	1.3999	1.4013	1.4026	1.4037	1.4047	1.4056	1.4064	1.4072	1.408	1.4088
318.15 K	1.3978	1.3992	1.4004	1.4015	1.4024	1.4034	1.4042	1.405	1.4058	1.4066
323.15 K	1.3957	1.397	1.3982	1.3993	1.4003	1.4012	1.402	1.4027	1.4036	1.4044

CCCCCCCC(=O)OCC [ethyl octanoate] + CC(C)CO
refractive index
Conditions	x1 = 0.1001	x1 = 0.1999	x1 = 0.3	x1 = 0.4	x1 = 0.5	x1 = 0.5999	x1 = 0.6999	x1 = 0.7999	x1 = 0.9	x1 = 1
288.15 K	1.4018	1.4052	1.408	1.4102	1.4123	1.4142	1.4158	1.4173	1.4186	1.4199
293.15 K	1.3997	1.403	1.4058	1.408	1.4101	1.412	1.4136	1.4151	1.4164	1.4177
298.15 K	1.3976	1.4009	1.4036	1.4058	1.4079	1.4097	1.4114	1.4128	1.4142	1.4155
303.15 K	1.3955	1.3987	1.4014	1.4036	1.4056	1.4075	1.4091	1.4106	1.4119	1.4132
308.15 K	1.3933	1.3965	1.3992	1.4014	1.4034	1.4052	1.4069	1.4084	1.4097	1.411
313.15 K	1.3911	1.3942	1.3969	1.3991	1.4012	1.403	1.4046	1.4061	1.4075	1.4088
318.15 K	1.3889	1.392	1.3947	1.3968	1.3989	1.4007	1.4024	1.4039	1.4052	1.4066
323.15 K	1.3867	1.3898	1.3925	1.3946	1.3967	1.3985	1.4001	1.4017	1.403	1.4044
